The text below walks through data of PMC5538713, “RORγt and RORα signature genes in human Th17 cells” (PLoS ONE, 2017).

SMILES strings stand for the structures. Like-named read-outs stand apart in the source and are kept apart here.

Common to all, as to experiment: Cerep selectivity panel
Assay type in all cases: binding

In one assay the target is T1, AT1 (h) (Homo sapiens, UniProt P30556).
T1 construct: purchased Cerep
T1 sequence (P30556 1-359): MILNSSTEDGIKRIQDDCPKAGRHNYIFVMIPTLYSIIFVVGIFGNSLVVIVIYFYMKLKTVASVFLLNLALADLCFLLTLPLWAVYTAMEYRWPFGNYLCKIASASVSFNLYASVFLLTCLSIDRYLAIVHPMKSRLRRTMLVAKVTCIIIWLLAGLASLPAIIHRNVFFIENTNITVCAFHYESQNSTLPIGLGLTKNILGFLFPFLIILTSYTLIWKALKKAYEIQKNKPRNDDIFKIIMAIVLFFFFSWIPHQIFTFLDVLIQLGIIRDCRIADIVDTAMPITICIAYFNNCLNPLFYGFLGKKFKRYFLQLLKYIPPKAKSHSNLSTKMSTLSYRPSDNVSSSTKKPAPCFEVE
The note with it: for inhibition at 1 µM: read-out: % Inhibition at 1µM; for inhibition at 10 µM: read-out: % Inhibition at 10µM. The procedure:
(§1) Supplementary file pone.0181868.s003.docx: S3 Table Selectivity profile of RORγt inverse agonists A, B, C and D. Compounds were evaluated at 1 μM and 10 μM in a panel of assays against 50 receptors, ion channels and transporters (Profile service by Cerep Inc.). (DOCX) Click here for additional data file.
(§2) S3 Table. RORɣt inverse agonists A, B, C and D were evaluated at 1 µM and 10 µM in a panel of assays against 50 receptors, ion channels and transporters (Profile service by Cerep Inc.).

The next assay addresses T2, H1 (h) (Homo sapiens, UniProt P35367).
T2 construct: purchased Cerep
To be noted: for inhibition at 10 µM: read-out: % Inhibition at 10µM. The procedure:
as §1, §2

For a further assay, the target named is T3, D1 (h) (Homo sapiens, UniProt P21728).
T3 construct: purchased Cerep
T3 sequence (P21728 whole entry): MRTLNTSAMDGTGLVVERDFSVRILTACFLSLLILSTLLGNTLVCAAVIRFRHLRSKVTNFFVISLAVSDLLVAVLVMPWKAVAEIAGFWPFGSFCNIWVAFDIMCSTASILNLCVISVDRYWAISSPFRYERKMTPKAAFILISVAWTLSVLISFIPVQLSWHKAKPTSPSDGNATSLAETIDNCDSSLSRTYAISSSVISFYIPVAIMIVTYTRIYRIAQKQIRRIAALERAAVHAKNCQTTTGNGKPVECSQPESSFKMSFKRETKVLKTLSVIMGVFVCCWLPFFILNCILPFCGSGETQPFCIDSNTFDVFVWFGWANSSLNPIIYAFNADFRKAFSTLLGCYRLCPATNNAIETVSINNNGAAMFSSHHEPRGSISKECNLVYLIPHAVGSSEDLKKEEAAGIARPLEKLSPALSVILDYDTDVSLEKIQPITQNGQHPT
To be noted: for inhibition at 1 µM: read-out: % Inhibition at 1µM; for inhibition at 10 µM: read-out: % Inhibition at 10µM. The procedure:
as §1, §2

A further assay addresses T4, 5HT2A (h) (Homo sapiens, UniProt P28223).
T4 construct: purchased Cerep
The note with it: read-out: % Inhibition at 10µM. The procedure: as §1, §2

For a further assay, the target named is T5, ORL1 (h) (Homo sapiens, UniProt P41146).
T5 construct: purchased Cerep
T5 sequence (P41146 whole entry): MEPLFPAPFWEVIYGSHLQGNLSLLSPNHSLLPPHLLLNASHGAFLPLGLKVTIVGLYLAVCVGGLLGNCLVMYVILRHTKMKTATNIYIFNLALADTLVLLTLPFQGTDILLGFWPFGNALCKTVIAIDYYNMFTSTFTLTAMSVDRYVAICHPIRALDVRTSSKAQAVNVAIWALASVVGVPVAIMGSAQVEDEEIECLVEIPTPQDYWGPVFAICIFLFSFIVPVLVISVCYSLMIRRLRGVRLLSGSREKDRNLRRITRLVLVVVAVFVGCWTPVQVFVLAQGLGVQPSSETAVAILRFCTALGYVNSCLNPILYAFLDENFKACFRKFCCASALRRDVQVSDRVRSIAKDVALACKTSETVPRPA
The note with it: for inhibition at 1 µM: read-out: % Inhibition at 1µM; for inhibition at 10 µM: read-out: % Inhibition at 10µM. The procedure:
as §1, §2

A further assay deals with T6, NE-T (Homo sapiens, UniProt P23975).
T6 construct: purchased Cerep
T6 sequence (P23975 whole entry): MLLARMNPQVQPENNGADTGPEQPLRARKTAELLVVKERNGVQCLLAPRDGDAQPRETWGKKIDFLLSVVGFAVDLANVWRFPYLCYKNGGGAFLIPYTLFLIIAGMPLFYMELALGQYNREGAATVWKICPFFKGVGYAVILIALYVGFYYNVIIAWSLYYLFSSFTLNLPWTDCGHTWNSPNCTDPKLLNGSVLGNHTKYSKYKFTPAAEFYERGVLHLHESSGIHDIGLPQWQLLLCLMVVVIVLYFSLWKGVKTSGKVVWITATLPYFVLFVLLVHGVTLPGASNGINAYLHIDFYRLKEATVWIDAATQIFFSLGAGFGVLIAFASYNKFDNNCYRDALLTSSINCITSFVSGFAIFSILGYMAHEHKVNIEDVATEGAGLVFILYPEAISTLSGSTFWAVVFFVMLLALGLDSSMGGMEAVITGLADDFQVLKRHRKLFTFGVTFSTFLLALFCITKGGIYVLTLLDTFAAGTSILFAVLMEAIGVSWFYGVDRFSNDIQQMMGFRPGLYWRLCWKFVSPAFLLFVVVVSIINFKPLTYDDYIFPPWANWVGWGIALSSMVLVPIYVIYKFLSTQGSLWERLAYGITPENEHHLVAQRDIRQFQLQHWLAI
The note with it: for inhibition at 1 µM: read-out: % Inhibition at 1µM; for inhibition at 10 µM: read-out: % Inhibition at 10µM. The procedure:
as §1, §2

Another assay deals with T7, BK2 (h) (Homo sapiens, UniProt P30411).
T7 construct: purchased Cerep
T7 sequence (P30411 1-391): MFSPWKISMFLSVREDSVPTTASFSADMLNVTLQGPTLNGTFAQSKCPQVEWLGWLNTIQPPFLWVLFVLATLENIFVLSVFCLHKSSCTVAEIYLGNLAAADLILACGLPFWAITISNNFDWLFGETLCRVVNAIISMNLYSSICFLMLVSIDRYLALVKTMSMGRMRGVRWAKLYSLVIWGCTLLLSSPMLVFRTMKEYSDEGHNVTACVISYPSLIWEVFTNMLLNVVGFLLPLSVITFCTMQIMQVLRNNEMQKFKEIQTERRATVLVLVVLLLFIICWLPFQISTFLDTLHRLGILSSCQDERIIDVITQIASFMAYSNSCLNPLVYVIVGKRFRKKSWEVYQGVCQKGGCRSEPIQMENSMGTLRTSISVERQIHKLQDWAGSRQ
The note with it: for inhibition at 1 µM: read-out: % Inhibition at 1µM; for inhibition at 10 µM: read-out: % Inhibition at 10µM. The procedure:
as §1, §2

Another assay has as its target T8, MC4 (h) (Homo sapiens, UniProt P32245).
T8 construct: purchased Cerep
The note with it: for inhibition at 10 µM: read-out: % Inhibition at 10µM; for inhibition at 1 µM: read-out: % Inhibition at 1µM. As to the method: as §1, §2

Another assay concerns the target T9, D2S (h) (Homo sapiens, UniProt P14416).
T9 construct: purchased Cerep
To be noted: for inhibition at 1 µM: read-out: % Inhibition at 1µM; for inhibition at 10 µM: read-out: % Inhibition at 10µM. As to the method: as §1, §2

Another assay deals with T10, CXCR2 (h) (Homo sapiens, UniProt P25025).
T10 construct: purchased Cerep
T10 sequence (P25025 1-360): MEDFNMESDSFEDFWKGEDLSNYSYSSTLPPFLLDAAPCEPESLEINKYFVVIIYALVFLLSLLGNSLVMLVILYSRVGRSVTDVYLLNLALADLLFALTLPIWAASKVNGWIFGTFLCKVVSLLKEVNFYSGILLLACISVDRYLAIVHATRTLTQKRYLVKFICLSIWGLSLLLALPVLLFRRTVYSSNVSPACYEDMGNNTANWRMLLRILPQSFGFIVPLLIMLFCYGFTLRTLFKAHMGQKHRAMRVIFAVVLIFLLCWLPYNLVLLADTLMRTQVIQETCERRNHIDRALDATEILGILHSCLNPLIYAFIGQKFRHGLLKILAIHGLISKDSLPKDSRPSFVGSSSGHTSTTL
To be noted: read-out: % Inhibition at 10µM. As to the method: as §1, §2

A further assay deals with T11, 5HT3 (h) (Homo sapiens, UniProt P46098).
T11 construct: purchased Cerep
T11 sequence (P46098 24-478): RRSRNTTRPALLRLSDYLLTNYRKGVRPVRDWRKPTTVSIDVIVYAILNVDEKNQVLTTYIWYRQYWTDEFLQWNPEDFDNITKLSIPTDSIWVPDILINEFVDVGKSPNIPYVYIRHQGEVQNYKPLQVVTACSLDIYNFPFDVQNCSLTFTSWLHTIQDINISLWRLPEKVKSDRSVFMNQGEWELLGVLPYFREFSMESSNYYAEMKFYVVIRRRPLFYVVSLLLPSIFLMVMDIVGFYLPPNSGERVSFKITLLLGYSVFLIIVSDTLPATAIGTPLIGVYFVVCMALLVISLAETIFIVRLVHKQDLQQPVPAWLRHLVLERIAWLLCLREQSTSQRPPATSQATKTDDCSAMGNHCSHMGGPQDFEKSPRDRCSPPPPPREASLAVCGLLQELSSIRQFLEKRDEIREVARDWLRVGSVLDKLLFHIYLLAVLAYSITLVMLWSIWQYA
The note with it: for inhibition at 1 µM: read-out: % Inhibition at 1µM; for inhibition at 10 µM: read-out: % Inhibition at 10µM. The procedure: as §1, §2

The next assay addresses T12, ɣ2 (h) (Homo sapiens, UniProt P49146).
T12 construct: purchased Cerep
T12 sequence (P49146 1-381): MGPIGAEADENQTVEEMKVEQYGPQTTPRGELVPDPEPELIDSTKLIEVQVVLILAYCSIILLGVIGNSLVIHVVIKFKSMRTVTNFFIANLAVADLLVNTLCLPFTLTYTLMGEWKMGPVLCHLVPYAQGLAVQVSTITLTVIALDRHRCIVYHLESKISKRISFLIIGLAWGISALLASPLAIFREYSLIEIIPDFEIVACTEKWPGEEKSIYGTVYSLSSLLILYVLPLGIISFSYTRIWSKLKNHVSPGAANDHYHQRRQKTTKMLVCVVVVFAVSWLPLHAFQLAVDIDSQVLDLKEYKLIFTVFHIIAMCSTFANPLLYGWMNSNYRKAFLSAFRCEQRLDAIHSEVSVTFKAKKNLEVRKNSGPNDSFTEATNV
As to the method:
as §1, §2

T9 sequence (P14416 1-414 isoform P14416-2): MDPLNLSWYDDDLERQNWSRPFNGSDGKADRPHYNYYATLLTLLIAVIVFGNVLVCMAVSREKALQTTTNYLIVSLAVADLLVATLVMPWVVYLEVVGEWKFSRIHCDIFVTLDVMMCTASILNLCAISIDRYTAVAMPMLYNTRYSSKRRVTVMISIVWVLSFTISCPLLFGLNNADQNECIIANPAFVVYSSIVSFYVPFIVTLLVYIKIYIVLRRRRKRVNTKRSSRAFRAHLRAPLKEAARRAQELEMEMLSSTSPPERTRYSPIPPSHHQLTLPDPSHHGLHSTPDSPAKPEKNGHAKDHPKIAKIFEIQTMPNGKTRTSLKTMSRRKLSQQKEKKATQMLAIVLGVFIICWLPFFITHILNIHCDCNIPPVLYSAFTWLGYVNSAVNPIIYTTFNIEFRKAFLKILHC
T4 sequence (P28223 whole entry): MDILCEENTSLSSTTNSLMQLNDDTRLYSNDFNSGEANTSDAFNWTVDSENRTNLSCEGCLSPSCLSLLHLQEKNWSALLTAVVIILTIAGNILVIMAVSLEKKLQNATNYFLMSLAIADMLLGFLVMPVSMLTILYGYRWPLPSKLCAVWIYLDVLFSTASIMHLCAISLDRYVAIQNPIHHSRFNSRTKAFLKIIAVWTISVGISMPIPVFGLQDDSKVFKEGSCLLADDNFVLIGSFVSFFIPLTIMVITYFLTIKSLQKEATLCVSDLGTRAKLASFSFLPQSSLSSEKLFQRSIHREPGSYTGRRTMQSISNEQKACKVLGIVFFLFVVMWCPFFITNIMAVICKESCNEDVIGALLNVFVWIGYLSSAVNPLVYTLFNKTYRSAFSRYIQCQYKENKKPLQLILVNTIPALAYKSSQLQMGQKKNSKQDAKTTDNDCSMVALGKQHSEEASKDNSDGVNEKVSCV
T2 sequence (P35367 whole entry): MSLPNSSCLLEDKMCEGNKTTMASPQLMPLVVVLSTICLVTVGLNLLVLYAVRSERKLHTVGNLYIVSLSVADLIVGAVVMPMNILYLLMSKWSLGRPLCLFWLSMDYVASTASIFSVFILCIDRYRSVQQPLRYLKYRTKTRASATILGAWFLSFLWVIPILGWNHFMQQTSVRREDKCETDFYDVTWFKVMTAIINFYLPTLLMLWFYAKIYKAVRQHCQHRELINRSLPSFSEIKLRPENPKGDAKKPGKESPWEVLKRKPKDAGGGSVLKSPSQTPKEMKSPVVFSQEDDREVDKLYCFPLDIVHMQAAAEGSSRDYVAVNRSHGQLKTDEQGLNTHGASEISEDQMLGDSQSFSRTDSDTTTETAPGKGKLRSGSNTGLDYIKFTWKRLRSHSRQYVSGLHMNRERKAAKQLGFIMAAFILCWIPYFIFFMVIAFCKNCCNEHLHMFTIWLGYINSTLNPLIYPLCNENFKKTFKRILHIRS
T8 sequence (P32245 whole entry): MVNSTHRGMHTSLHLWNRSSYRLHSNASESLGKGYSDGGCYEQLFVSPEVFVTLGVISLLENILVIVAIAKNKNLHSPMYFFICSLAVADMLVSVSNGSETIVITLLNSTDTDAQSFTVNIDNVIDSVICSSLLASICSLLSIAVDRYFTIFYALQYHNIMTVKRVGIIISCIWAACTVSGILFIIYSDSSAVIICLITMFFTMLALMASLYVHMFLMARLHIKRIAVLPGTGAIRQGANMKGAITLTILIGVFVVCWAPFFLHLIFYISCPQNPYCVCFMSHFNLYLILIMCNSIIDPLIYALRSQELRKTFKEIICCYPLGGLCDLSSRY

In the case of `COc1nc2ccc([C@@](O)(c3ccc(C)nc3C)c3cnnn3C)cc2c(Cl)c1Cc1ccc(C(F)(F)F)cc1` [compound A], the inhibition at 1 µM turned out to be 0% at AT1 (h) (AT1 (h), 1 µM); 16% at D1 (h) (D1 (h), 1 µM); 1% on ORL1 (h) (ORL1 (h), 1 µM); 44% at NE-T (NE-T, 1 µM); 6% at BK2 (h) (BK2 (h), 1 µM); 12% at D2S (h) (D2S (h), 1 µM). Also, at 5HT3 (h) (5HT3 (h), 1 µM), the inhibition at 1 µM was 7%. Besides, the inhibition at 10 µM at AT1 (h) (AT1 (h), 10 µM) is 32%; on H1 (h) (H1 (h), 10 µM) it was 8%; on D1 (h) (D1 (h), 10 µM), 48%; at 5HT2A (h) (5HT2A (h), 10 µM), 27%; on ORL1 (h) (ORL1 (h), 10 µM) it was 10%; at NE-T (NE-T, 10 µM) it was 86%. Besides, the inhibition at 10 µM at MC4 (h) (MC4 (h), 10 µM) was 9%; at D2S (h) (D2S (h), 10 µM) it was 70%; at CXCR2 (h) (CXCR2 (h), 10 µM), 12%; on 5HT3 (h) (5HT3 (h), 10 µM) it was 29%.

Consider `COc1nc2ccc([C@@](O)(c3ccccc3)C3CCN(C(C)=O)CC3)cc2c(Cl)c1Cc1ccc(-n2cccn2)cc1` [C], for which the inhibition at 10 µM came to 5% at ɣ2 (h); 11% at AT1 (h); 11% on D1 (h); 38% at NE-T; 10% at CXCR2 (h); 18% at 5HT3 (h). Also, the inhibition at 1 µM on H1 (h) (read-out: % Inhibition at 1µM) amounted to 10%; at NE-T, 19%; at MC4 (h), 14%; at D2S (h), 10%.

Regarding `COc1nc2ccc([C@](O)(c3ccc(Cl)cc3)c3cncn3C)cc2c(Cl)c1Cc1ccc(-n2cccn2)cc1` [B], the inhibition at 10 µM at ɣ2 (h) is 10%; on AT1 (h) it was 16%; on H1 (h), 2%; at D1 (h), 29%; at 5HT2A (h), 12%; on ORL1 (h), 4%. Also, the inhibition at 10 µM turned out to be 38% on NE-T, 6% on BK2 (h), 6% at MC4 (h) and 19% at 5HT3 (h). Besides, the inhibition at 1 µM turned out to be 1% at AT1 (h); 10% at D1 (h); 6% on ORL1 (h); 21% at NE-T; 9% at BK2 (h); 7% at D2S (h). Besides, on 5HT3 (h), the inhibition at 1 µM worked out at 16%.

Consider `CN(C)c1nc2ccc(C(O)(c3ccncc3)c3cncn3C)cc2c(Cl)c1-c1ccccc1` (stereo not shown) [compound D], for which the inhibition at 1 µM at ɣ2 (h) (1 µM) worked out at 10%; on ORL1 (h) it was 5%; at NE-T, 5%; at MC4 (h), 3%; on D2S (h), 7%; at 5HT3 (h) it was 8%. Further, the inhibition at 10 µM is 15% against ɣ2 (h); 28% on AT1 (h); 27% at H1 (h); 40% on D1 (h); 22% at 5HT2A (h); 76% on NE-T. The inhibition at 10 µM at BK2 (h) is 10%; on MC4 (h) it was 25%; at D2S (h) it was 25%; at CXCR2 (h), 17%; on 5HT3 (h), 17%.

Broadly, the inhibition is how much of the control response was suppressed.
